Assays:
Experiment in all cases: KINOMEscan competition binding
Conditions in all cases: compound 10.0 µM
[1] = target: PIM2 (human) (UniProt Q9P1W9)
[2] = target: PLK4 (human) (UniProt O00444)
[3] = target: RPS6KA6 KD2 (human) (UniProt Q9UK32)
[4] = target: ABL2 (human) (UniProt P42684)
[5] = target: FGFR3 (human) (UniProt P22607)
[6] = target: FGFR2 (human) (UniProt P21802)
[7] = target: FGFR1 (human) (UniProt P11362)
[8] = target: MAP4K3 (human) (UniProt Q8IVH8)
[9] = target: PKMYT1 (human) (UniProt Q99640)
[10] = target: STK17B (human) (UniProt O94768)
Chain of STK17B (human) (O94768 whole entry, looked up): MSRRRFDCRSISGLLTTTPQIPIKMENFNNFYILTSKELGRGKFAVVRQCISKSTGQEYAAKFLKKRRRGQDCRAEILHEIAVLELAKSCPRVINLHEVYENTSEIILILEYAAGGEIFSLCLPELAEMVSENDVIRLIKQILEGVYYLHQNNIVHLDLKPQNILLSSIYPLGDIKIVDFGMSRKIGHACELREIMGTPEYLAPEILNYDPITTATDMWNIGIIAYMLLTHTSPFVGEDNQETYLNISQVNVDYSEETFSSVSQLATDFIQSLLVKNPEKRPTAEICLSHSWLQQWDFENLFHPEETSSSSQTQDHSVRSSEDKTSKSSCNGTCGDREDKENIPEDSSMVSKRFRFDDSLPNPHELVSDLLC

[11] = target: FLT4 (human) (UniProt P35916)
[12] = target: RPS6KA5 KD2 (human) (UniProt O75582)
[13] = target: MST4 (human) (UniProt Q9P289)
Chain of MST4 (human) (Q9P289 whole entry, looked up): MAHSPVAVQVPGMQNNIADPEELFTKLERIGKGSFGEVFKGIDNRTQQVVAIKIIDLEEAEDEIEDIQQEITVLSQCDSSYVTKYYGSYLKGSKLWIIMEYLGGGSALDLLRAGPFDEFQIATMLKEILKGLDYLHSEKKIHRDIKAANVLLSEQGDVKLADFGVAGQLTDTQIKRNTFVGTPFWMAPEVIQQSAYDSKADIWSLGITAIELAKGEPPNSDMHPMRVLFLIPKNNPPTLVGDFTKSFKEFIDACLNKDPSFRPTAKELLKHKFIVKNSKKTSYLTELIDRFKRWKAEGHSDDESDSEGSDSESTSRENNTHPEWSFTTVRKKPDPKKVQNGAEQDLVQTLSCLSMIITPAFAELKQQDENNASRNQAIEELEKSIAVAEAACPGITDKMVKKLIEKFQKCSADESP

[14] = target: MAP4K2 (human) (UniProt Q12851)
[15] = target: MAPK10 (human) (UniProt P53779)
[16] = target: MAP3K10 (human) (UniProt Q02779)
[17] = target: TGFBR1 (human) (UniProt P36897)
[18] = target: EPHA4 (human) (UniProt P54764)
[19] = target: RIOK2 (human) (UniProt Q9BVS4)
Chain of RIOK2 (human) (Q9BVS4 whole entry, looked up): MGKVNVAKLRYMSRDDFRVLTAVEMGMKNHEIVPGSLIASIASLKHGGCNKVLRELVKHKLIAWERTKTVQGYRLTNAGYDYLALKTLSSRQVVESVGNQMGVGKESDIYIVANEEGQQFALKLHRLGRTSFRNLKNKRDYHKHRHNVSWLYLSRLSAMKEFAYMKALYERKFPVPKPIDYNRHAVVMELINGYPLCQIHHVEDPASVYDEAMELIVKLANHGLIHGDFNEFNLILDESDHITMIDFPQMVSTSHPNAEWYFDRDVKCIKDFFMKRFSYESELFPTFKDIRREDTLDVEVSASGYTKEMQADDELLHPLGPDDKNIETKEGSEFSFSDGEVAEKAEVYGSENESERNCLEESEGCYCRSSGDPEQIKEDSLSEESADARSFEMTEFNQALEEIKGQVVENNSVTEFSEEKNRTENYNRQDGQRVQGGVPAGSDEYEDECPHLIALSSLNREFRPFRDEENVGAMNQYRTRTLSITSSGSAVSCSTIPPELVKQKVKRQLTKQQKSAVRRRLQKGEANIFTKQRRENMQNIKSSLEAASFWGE

[20] = target: FLT1 (human) (UniProt P17948)
[21] = target: CDK7 (human) (UniProt P50613)
Chain of CDK7 (human) (P50613 whole entry, looked up): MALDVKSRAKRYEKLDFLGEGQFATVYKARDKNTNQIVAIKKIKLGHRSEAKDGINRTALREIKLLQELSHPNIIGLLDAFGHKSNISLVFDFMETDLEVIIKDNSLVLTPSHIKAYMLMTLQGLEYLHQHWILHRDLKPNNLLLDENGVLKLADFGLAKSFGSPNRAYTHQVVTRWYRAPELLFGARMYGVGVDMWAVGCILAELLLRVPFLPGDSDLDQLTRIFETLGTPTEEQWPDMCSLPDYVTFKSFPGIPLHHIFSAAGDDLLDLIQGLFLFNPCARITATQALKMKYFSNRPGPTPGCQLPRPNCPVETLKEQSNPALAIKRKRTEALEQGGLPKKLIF

[22] = target: AKT3 (human) (UniProt Q9Y243)
[23] = target: PRKAA2 (human) (UniProt P54646)
Chain of PRKAA2 (human) (P54646 whole entry, looked up): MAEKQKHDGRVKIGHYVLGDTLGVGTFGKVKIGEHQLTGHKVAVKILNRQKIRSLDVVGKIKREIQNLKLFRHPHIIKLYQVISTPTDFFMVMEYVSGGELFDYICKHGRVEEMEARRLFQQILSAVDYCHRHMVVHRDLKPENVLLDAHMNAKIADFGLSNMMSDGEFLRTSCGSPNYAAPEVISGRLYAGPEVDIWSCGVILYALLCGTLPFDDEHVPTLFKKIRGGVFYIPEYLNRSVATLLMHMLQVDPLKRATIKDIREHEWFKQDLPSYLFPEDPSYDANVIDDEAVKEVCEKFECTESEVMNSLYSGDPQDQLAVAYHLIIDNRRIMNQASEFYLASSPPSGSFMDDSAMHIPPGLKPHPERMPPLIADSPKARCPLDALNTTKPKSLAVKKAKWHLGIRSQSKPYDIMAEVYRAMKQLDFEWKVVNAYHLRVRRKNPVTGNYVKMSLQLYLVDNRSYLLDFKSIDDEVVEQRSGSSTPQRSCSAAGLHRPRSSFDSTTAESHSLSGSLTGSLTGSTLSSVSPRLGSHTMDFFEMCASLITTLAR

[24] = target: MST1R (human) (UniProt Q04912)
[25] = target: FRK (human) (UniProt P42685)
[26] = target: AKT1 (human) (UniProt P31749)
[27] = target: JAK2 JH1 catalytic (human) (UniProt O60674)
[28] = target: CLK4 (human) (UniProt Q9HAZ1)
[29] = target: TYK2 JH2 pseudokinase (human) (UniProt P29597)
[30] = target: PRKCE (human) (UniProt Q02156)
[31] = target: TGFBR2 (human) (UniProt P37173)
[32] = target: PIP4K2B (human) (UniProt P78356)
[33] = target: BMPR1A (human) (UniProt P36894)
[34] = target: DYRK1B (human) (UniProt Q9Y463)
[35] = target: MAP3K3 (human) (UniProt Q99759)
[36] = target: CHEK2 (human) (UniProt O96017)
[37] = target: NEK2 (human) (UniProt P51955)
[38] = target: ACVRL1 (human) (UniProt P37023)
[39] = target: PLK1 (human) (UniProt P53350)
Chain of PLK1 (human) (P53350 whole entry, looked up): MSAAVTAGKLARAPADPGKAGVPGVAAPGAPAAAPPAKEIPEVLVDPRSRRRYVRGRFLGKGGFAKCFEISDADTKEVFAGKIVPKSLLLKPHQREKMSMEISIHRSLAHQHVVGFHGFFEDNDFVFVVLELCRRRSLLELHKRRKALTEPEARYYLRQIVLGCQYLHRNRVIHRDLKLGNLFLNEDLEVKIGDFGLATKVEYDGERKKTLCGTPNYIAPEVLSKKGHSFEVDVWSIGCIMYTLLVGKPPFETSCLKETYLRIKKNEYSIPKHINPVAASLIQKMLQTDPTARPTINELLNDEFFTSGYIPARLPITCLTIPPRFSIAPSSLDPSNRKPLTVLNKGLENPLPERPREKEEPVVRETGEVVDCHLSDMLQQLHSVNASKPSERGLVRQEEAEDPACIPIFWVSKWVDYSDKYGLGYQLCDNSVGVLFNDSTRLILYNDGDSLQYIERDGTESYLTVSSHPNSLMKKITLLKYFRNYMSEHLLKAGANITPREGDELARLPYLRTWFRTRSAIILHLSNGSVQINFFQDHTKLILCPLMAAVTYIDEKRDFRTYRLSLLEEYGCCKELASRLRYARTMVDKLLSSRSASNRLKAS

[40] = target: CAMK2B (human) (UniProt Q13554)
Chain of CAMK2B (human) (Q13554 whole entry, looked up): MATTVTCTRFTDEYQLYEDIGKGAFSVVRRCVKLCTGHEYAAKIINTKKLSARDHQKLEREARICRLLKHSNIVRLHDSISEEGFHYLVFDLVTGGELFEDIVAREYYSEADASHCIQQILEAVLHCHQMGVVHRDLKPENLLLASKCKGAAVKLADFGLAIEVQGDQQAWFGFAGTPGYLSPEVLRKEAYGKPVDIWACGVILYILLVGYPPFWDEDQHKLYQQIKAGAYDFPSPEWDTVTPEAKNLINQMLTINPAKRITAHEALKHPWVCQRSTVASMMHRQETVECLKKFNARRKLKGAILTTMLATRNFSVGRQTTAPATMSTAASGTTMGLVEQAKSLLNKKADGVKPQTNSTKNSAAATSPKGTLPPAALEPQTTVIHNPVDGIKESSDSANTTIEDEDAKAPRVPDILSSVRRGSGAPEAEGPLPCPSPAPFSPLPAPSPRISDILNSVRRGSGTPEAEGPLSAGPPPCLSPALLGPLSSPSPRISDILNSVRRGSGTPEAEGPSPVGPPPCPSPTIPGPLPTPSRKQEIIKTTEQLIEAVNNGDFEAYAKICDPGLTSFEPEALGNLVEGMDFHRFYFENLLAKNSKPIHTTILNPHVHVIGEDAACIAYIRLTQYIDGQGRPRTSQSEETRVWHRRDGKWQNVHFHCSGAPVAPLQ

Chain of ABL2 (human) (P42684 whole entry, looked up): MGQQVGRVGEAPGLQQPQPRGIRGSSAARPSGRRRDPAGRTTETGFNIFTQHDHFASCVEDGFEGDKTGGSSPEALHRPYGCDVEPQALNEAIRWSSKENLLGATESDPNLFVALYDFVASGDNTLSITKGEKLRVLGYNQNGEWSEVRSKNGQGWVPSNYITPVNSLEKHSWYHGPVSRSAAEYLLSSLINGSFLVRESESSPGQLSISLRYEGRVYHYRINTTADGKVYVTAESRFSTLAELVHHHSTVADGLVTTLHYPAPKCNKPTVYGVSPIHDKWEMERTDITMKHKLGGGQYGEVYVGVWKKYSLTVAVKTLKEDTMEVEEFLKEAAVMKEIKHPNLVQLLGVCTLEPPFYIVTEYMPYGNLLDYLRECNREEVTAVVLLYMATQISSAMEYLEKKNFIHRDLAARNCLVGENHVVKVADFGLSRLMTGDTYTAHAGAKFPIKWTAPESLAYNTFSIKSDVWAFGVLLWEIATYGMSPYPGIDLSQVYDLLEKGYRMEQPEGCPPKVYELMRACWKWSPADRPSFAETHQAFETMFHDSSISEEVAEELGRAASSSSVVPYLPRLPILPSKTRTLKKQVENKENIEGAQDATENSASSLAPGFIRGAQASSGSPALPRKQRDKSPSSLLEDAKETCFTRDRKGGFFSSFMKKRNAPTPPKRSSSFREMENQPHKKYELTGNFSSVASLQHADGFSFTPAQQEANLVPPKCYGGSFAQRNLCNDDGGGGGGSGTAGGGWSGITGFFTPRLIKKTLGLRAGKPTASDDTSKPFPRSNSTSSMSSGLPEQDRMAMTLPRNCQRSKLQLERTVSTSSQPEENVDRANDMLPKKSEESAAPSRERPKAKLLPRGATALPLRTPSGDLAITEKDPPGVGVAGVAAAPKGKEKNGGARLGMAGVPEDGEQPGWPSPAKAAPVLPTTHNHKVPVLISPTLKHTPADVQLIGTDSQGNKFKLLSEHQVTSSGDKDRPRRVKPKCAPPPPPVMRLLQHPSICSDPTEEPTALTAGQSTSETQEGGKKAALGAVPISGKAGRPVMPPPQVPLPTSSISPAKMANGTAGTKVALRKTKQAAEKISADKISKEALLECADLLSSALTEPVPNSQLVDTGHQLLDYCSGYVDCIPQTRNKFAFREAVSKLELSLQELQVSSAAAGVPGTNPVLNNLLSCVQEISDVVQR
Chain of PIM2 (human) (Q9P1W9 whole entry, looked up): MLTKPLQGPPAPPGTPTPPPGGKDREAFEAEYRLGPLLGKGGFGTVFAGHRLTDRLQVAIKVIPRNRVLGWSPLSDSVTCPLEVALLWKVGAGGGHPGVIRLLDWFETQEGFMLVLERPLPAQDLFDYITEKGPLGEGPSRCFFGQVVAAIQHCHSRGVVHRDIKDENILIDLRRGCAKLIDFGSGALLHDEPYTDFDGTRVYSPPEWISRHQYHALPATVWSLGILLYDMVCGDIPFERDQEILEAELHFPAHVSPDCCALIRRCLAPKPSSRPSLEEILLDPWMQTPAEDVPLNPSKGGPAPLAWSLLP

SMILES | kinase still bound, per cent of control [1] | kinase still bound, per cent of control [2] | kinase still bound, per cent of control [3] | kinase still bound, per cent of control [4] | kinase still bound, per cent of control [5] | kinase still bound, per cent of control [7] | kinase still bound, per cent of control [8] | kinase still bound, per cent of control [9] | kinase still bound, per cent of control [10] | kinase still bound, per cent of control [11] | kinase still bound, per cent of control [12] | kinase still bound, per cent of control [13] | kinase still bound, per cent of control [14] | kinase still bound, per cent of control [15] | kinase still bound, per cent of control [16] | kinase still bound, per cent of control [17] | kinase still bound, per cent of control [18] | kinase still bound, per cent of control [20] | kinase still bound, per cent of control [21] | kinase still bound, per cent of control [22] | other results
CC[C@@H]1C(=O)N(C)c2cnc(Nc3ccc(C(=O)NC4CCN(C)CC4)cc3OC)nc2N1C1CCCC1 | 100% | 100% | 8.3% | 100% | 100% | 100% | 100% | 100% | 100% | 100% | 14% | 100% | 100% | 100% | 100% | 100% | 100% | 100% | 100% | 100% | kinase still bound, per cent of control [6]: 100%; kinase still bound, per cent of control [19]: 100%; kinase still bound, per cent of control [23]: 100%; kinase still bound, per cent of control [24]: 100%; kinase still bound, per cent of control [25]: 100%; kinase still bound, per cent of control [26]: 100%; kinase still bound, per cent of control [27]: 100%; kinase still bound, per cent of control [28]: 100%; kinase still bound, per cent of control [29]: 100%; kinase still bound, per cent of control [30]: 100%; kinase still bound, per cent of control [31]: 100%; kinase still bound, per cent of control [32]: 100%; kinase still bound, per cent of control [33]: 100%; kinase still bound, per cent of control [34]: 100%; kinase still bound, per cent of control [35]: 100%; kinase still bound, per cent of control [36]: 100%; kinase still bound, per cent of control [37]: 17%; kinase still bound, per cent of control [38]: 100%
Cc1cc([C@@H](C)Nc2ccccc2C(=O)O)c2nc(N3CCOCC3)cc(=O)n2c1 | 70% | 100% | 100% | 95% | 83% | 89% | 88% | 100% | 100% | 95% | 91% | 100% | 56% | 82% | 96% | 100% | 93% | 83% | 97% | 100% | kinase still bound, per cent of control [19]: 54%; kinase still bound, per cent of control [23]: 88%; kinase still bound, per cent of control [39]: 100%; kinase still bound, per cent of control [25]: 83%; kinase still bound, per cent of control [26]: 100%; kinase still bound, per cent of control [27]: 62%; kinase still bound, per cent of control [28]: 68%; kinase still bound, per cent of control [29]: 100%; kinase still bound, per cent of control [40]: 83%; kinase still bound, per cent of control [30]: 100%; kinase still bound, per cent of control [31]: 95%; kinase still bound, per cent of control [32]: 100%; kinase still bound, per cent of control [33]: 97%; kinase still bound, per cent of control [35]: 87%; kinase still bound, per cent of control [36]: 100%; kinase still bound, per cent of control [37]: 71%; kinase still bound, per cent of control [38]: 89%
CCOc1cc2ncc(C#N)c(Nc3ccc(OCc4ccccn4)c(Cl)c3)c2cc1NC(=O)/C=C/CN(C)C | 100% | 82% | 97% | 92% | 98% | 100% | 2.1% | 84% | 46% | 100% | 77% | 2% | 5.2% | 27% | 88% | 100% | 96% | 95% | 68% | 100% | kinase still bound, per cent of control [6]: 96%; kinase still bound, per cent of control [19]: 53%; kinase still bound, per cent of control [23]: 80%; kinase still bound, per cent of control [24]: 100%; kinase still bound, per cent of control [39]: 57%; kinase still bound, per cent of control [25]: 100%; kinase still bound, per cent of control [26]: 98%; kinase still bound, per cent of control [28]: 100%; kinase still bound, per cent of control [29]: 99%; kinase still bound, per cent of control [40]: 100%; kinase still bound, per cent of control [30]: 100%; kinase still bound, per cent of control [31]: 100%; kinase still bound, per cent of control [32]: 95%; kinase still bound, per cent of control [33]: 89%; kinase still bound, per cent of control [34]: 99%; kinase still bound, per cent of control [35]: 3.8%; kinase still bound, per cent of control [36]: 79%; kinase still bound, per cent of control [37]: 12%; kinase still bound, per cent of control [38]: 100%
O=C(NOC[C@H](O)CO)c1ccc(F)c(F)c1Nc1ccc(I)cc1F | 75% | 86% | 80% | 90% | 100% | 100% | 87% | 80% | 100% | 94% | 100% | 77% | 100% | 90% | 100% | 100% | 100% | 94% | 83% | 89% | kinase still bound, per cent of control [6]: 100%; kinase still bound, per cent of control [23]: 97%; kinase still bound, per cent of control [24]: 78%; kinase still bound, per cent of control [39]: 72%; kinase still bound, per cent of control [25]: 60%; kinase still bound, per cent of control [26]: 81%; kinase still bound, per cent of control [27]: 100%; kinase still bound, per cent of control [28]: 89%; kinase still bound, per cent of control [29]: 100%; kinase still bound, per cent of control [40]: 100%; kinase still bound, per cent of control [30]: 100%; kinase still bound, per cent of control [31]: 100%; kinase still bound, per cent of control [32]: 100%; kinase still bound, per cent of control [33]: 100%; kinase still bound, per cent of control [34]: 98%; kinase still bound, per cent of control [35]: 98%; kinase still bound, per cent of control [36]: 86%; kinase still bound, per cent of control [37]: 70%; kinase still bound, per cent of control [38]: 100%
